# Laboratory results taken from patent publication US9833497B2, “Human originated EGF domain proteins and use of the same” (CHENGDU SOURCEBIO LIMITED-LIABILITY COMPANY, priority 2013, dated 2017).
# Columns and labels:
# Type in all cases: cell-based
# E. coli BL21 = assay: MIC against Gram-negative bacteria: E. coli BL21
# Procedure, shortened: (§1)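 Broth microdilution, LB medium, final inoculum 5×10^5 CFU/mL from McFarland 0.5 cultures. Recombinant human EGF domain proteins tested in two-fold steps, n=3. MIC: lowest concentration, no growth.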
# Proteus vulgaris = assay: MIC against Gram-negative bacteria: Proteus vulgaris
# Procedure, shortened: as §1
# Proteus mirabilis = assay: MIC against Gram-negative bacteria: Proteus mirabilis
# Procedure, shortened: as §1
# E. coli DH5α = assay: Antibacterial activity: MIC and growth curve against E. coli DH5α in 96-well plate; conditions: minimal inhibitory concentration against E. coli DH5α; 96-well plate, 5×10^5 CFU/mL, 37° C., judged after 8 h
# Procedure, shortened: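 Log-phase bacteria (OD600 ~0.5) resuspended in LB at 5×10^5 CFU/mL, exposed to recombinant protein at 50, 25, 12.5 μg/mL final in triplicate, 37 °C shaking at 175 rpm. OD600 read every 30 min; MIC is lowest concentration showing no growth.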
# Citrobacter diversus = assay: MIC against Gram-negative bacteria: Citrobacter diversus
# Procedure, shortened: as §1
# Moraxella catarrhalis = assay: MIC against Gram-negative bacteria: Moraxella catarrhalis
# Procedure, shortened: as §1
# Aeromonas hydrophila = assay: MIC against Gram-negative bacteria: Aeromonas hydrophila
# Procedure, shortened: as §1
# Enterobacter cloacae = assay: MIC against Gram-negative bacteria: Enterobacter cloacae
# Procedure, shortened: as §1
# Serratia marcescens = assay: MIC against Gram-negative bacteria: Serratia marcescens
# Procedure, shortened: as §1
# Pseudomonas aeruginosa = assay: MIC against Gram-negative bacteria: Pseudomonas aeruginosa
# Procedure, shortened: as §1
# Klebsiella pneumonia = assay: MIC against Gram-negative bacteria: Klebsiella pneumonia
# Procedure, shortened: as §1
# [1] = E. coli BL21, 5×10^5 CFU/mL, 10 h cultivation at 37° C.
# [2] = Proteus vulgaris, 5×10^5 CFU/mL, 10 h cultivation at 37° C.
# [3] = Proteus mirabilis, 5×10^5 CFU/mL, 10 h cultivation at 37° C.
# [4] = Citrobacter diversus, 5×10^5 CFU/mL, 10 h cultivation at 37° C.
# [5] = Moraxella catarrhalis, 5×10^5 CFU/mL, 10 h cultivation at 37° C.
# [6] = Aeromonas hydrophila, 5×10^5 CFU/mL, 10 h cultivation at 37° C.
# [7] = Enterobacter cloacae, 5×10^5 CFU/mL, 10 h cultivation at 37° C.
# [8] = Serratia marcescens, 5×10^5 CFU/mL, 10 h cultivation at 37° C.
# [9] = Pseudomonas aeruginosa, 5×10^5 CFU/mL, 10 h cultivation at 37° C.
# [10] = Klebsiella pneumonia, 5×10^5 CFU/mL, 10 h cultivation at 37° C.
# [11] = 10 h cultivation at 37° C., 5×10^5 CFU/mL, two-fold serial dilution
# [12] = 96-well plate, 5×10^5 CFU/mL, 37° C., 10 h
substance,measurement,setting,value
PRT229 (DINECLTSSVCPEHSDCVNSMGSYSCSCQVGFISRNSTCE; listed as Homo sapiens),MIC (μg/mL) E. coli BL21,"E. coli BL21; E. coli BL21, 10 h cultivation at 37° C., 5×10^5 CFU/mL",25 µg/mL
same,MIC (μg/mL) P. vulgaris,"Proteus vulgaris; P. vulgaris, 10 h cultivation at 37° C., 5×10^5 CFU/mL",25 µg/mL
same,MIC (μg/mL) P. mirabilis,"Proteus mirabilis; P. mirabilis, 10 h cultivation at 37° C., 5×10^5 CFU/mL",12.5 µg/mL
same,MIC,E. coli DH5α,50 µg/mL
same,MIC (μg/mL) C. diversus,"Citrobacter diversus; C. diversus, 10 h cultivation at 37° C., 5×10^5 CFU/mL",12.5 µg/mL
same,MIC (μg/mL) M. catarrhalis,"Moraxella catarrhalis; M. catarrhalis, 10 h cultivation at 37° C., 5×10^5 CFU/mL",12.5 µg/mL
same,MIC (μg/mL) A. hydrophila,"Aeromonas hydrophila; A. hydrophila, 10 h cultivation at 37° C., 5×10^5 CFU/mL",12.5 µg/mL
same,MIC (μg/mL) E. cloacae,"Enterobacter cloacae; E. cloacae, 10 h cultivation at 37° C., 5×10^5 CFU/mL",12.5 µg/mL
same,MIC (μg/mL) S. marcescens,"Serratia marcescens; S. marcescens, 10 h cultivation at 37° C., 5×10^5 CFU/mL",12.5 µg/mL
same,MIC (μg/mL) P. aeruginosa,"Pseudomonas aeruginosa; P. aeruginosa, 10 h cultivation at 37° C., 5×10^5 CFU/mL",12.5 µg/mL
same,MIC (μg/mL) K. pneumonia,"Klebsiella pneumonia; K. pneumonia, 10 h cultivation at 37° C., 5×10^5 CFU/mL",12.5 µg/mL
PRT1457 (CQCHGHADNCDTTSQPYRCLCSQESFTEGLHCDRCLPLYNDKPFRQGDQVYAFNCKP; listed as Homo sapiens),MIC against E. coli BL21,E. coli BL21; [1],25 µg/mL
same,MIC against P. vulgaris,Proteus vulgaris; [2],12.5 µg/mL
same,MIC against P. mirabilis,Proteus mirabilis; [3],25 µg/mL
same,MIC,E. coli DH5α,12.5 µg/mL
same,MIC against C. diversus,Citrobacter diversus; [4],12.5 µg/mL
same,MIC against M. catarrhalis,Moraxella catarrhalis; [5],12.5 µg/mL
same,MIC against A. hydrophila,Aeromonas hydrophila; [6],12.5 µg/mL
same,MIC against E. cloacae,Enterobacter cloacae; [7],12.5 µg/mL
same,MIC against S. marcescens,Serratia marcescens; [8],25 µg/mL
same,MIC against P. aeruginosa,Pseudomonas aeruginosa; [9],12.5 µg/mL
same,MIC against K. pneumonia,Klebsiella pneumonia; [10],100 µg/mL
PRT895 (NIDECAGNPCHNGGTCEDGINGFTCRCPEGYHDPTCL; listed as Homo sapiens),MIC,"E. coli BL21; E. coli BL21, 10 h cultivation at 37° C.",25 µg/mL
same,MIC,"Proteus vulgaris; P. vulgaris, 10 h cultivation at 37° C.",25 µg/mL
same,MIC,"Proteus mirabilis; P. mirabilis, 10 h cultivation at 37° C.",12.5 µg/mL
same,MIC,E. coli DH5α,50 µg/mL
same,MIC,"Citrobacter diversus; C. diversus, 10 h cultivation at 37° C.",12.5 µg/mL
same,MIC,"Moraxella catarrhalis; M. catarrhalis, 10 h cultivation at 37° C.",50 µg/mL
same,MIC,"Aeromonas hydrophila; A. hydrophila, 10 h cultivation at 37° C.",50 µg/mL
same,MIC,"Enterobacter cloacae; E. cloacae, 10 h cultivation at 37° C.",12.5 µg/mL
same,MIC,"Serratia marcescens; S. marcescens, 10 h cultivation at 37° C.",25 µg/mL
same,MIC,"Pseudomonas aeruginosa; P. aeruginosa, 10 h cultivation at 37° C.",12.5 µg/mL
same,MIC,"Klebsiella pneumonia; K. pneumonia, 10 h cultivation at 37° C.",50 µg/mL
PRT1053 (QLVSCPRNVSECSHDCVLTSEGPLCFCPEGSVLERDGKTCS; listed as Homo sapiens),MIC E. coli BL21,E. coli BL21; [11],12.5 µg/mL
same,MIC P. vulgaris,Proteus vulgaris; [11],12.5 µg/mL
same,MIC P. mirabilis,Proteus mirabilis; [11],100 µg/mL
same,MIC,E. coli DH5α,12.5 µg/mL
same,MIC C. diversus,Citrobacter diversus; [11],12.5 µg/mL
same,MIC M. catarrhalis,Moraxella catarrhalis; [11],12.5 µg/mL
same,MIC A. hydrophila,Aeromonas hydrophila; [11],50 µg/mL
same,MIC E. cloacae,Enterobacter cloacae; [11],12.5 µg/mL
same,MIC S. marcescens,Serratia marcescens; [11],100 µg/mL
same,MIC P. aeruginosa,Pseudomonas aeruginosa; [11],12.5 µg/mL
same,MIC K. pneumonia,Klebsiella pneumonia; [11],50 µg/mL
PRT506 (CNCSVAGSVSDGCTDEGQCHCVPGVAGKRCDRCAHGFYAYQDGSCTP; listed as Homo sapiens),MIC against E. coli BL21,E. coli BL21; [12],12.5 µg/mL
same,MIC against P. vulgaris,Proteus vulgaris; [12],12.5 µg/mL
same,MIC against P. mirabilis,Proteus mirabilis; [12],25 µg/mL
same,MIC,E. coli DH5α,25 µg/mL
same,MIC against C. diversus,Citrobacter diversus; [12],25 µg/mL
same,MIC against M. catarrhalis,Moraxella catarrhalis; [12],50 µg/mL
same,MIC against A. hydrophila,Aeromonas hydrophila; [12],12.5 µg/mL
same,MIC against E. cloacae,Enterobacter cloacae; [12],25 µg/mL
same,MIC against S. marcescens,Serratia marcescens; [12],12.5 µg/mL
same,MIC against P. aeruginosa,Pseudomonas aeruginosa; [12],25 µg/mL
same,MIC against K. pneumonia,Klebsiella pneumonia; [12],50 µg/mL
PRT528 (CSCNSNGQLGSCHPLTGDCINQEPKDSSPAEECDD; listed as Homo sapiens),MIC against E. coli BL21,E. coli BL21; [12],25 µg/mL
same,MIC against P. vulgaris,Proteus vulgaris; [12],25 µg/mL
same,MIC against P. mirabilis,Proteus mirabilis; [12],12.5 µg/mL
same,MIC,E. coli DH5α,12.5 µg/mL
same,MIC against C. diversus,Citrobacter diversus; [12],50 µg/mL
same,MIC against M. catarrhalis,Moraxella catarrhalis; [12],25 µg/mL
same,MIC against A. hydrophila,Aeromonas hydrophila; [12],25 µg/mL
same,MIC against E. cloacae,Enterobacter cloacae; [12],12.5 µg/mL
same,MIC against S. marcescens,Serratia marcescens; [12],50 µg/mL
same,MIC against P. aeruginosa,Pseudomonas aeruginosa; [12],50 µg/mL
same,MIC against K. pneumonia,Klebsiella pneumonia; [12],25 µg/mL
PRT1477 (DIDECSENMCAQLCVNYPGGYTCYCDGKKGFKLAQDQKSCE; listed as Homo sapiens),MIC against E. coli BL21,E. coli BL21; [1],12.5 µg/mL
same,MIC against P. vulgaris,Proteus vulgaris; [2],50 µg/mL
same,MIC against P. mirabilis,Proteus mirabilis; [3],25 µg/mL
same,MIC,E. coli DH5α,50 µg/mL
same,MIC against C. diversus,Citrobacter diversus; [4],25 µg/mL
same,MIC against M. catarrhalis,Moraxella catarrhalis; [5],12.5 µg/mL
same,MIC against A. hydrophila,Aeromonas hydrophila; [6],50 µg/mL
same,MIC against E. cloacae,Enterobacter cloacae; [7],25 µg/mL
same,MIC against S. marcescens,Serratia marcescens; [8],12.5 µg/mL
same,MIC against P. aeruginosa,Pseudomonas aeruginosa; [9],50 µg/mL
same,MIC against K. pneumonia,Klebsiella pneumonia; [10],12.5 µg/mL
